Biological target: T1, human PAH with the R408W mutation (Homo sapiens, UniProt P00439, R408W)
T1 construct: expressed in transfected cells
T1 sequence (P00439 1-452 R408W): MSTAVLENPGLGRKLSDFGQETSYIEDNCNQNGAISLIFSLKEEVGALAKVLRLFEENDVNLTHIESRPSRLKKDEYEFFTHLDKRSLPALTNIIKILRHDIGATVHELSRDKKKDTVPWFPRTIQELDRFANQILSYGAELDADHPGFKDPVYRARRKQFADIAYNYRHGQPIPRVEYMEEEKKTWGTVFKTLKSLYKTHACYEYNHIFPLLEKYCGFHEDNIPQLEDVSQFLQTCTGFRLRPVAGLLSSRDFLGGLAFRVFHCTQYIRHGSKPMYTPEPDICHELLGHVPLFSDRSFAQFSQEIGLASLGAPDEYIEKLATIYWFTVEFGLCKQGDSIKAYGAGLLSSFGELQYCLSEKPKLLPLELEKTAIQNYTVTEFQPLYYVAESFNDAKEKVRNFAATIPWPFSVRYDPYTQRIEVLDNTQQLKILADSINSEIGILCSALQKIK
Assay: Cell Based Phenylalanine Flux Assay;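 note: after compound treatment, cells received sepiapterin plus isotope-labelled Phenylalanine for 4 hours, then labelled Tyrosine in the medium was quantified, 10-point 2-fold dilution series run in duplicate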
Conditions: A375 cells expressing human PAH R408W; 24 hrs compound incubation; 13C-Tyrosine by LC-MS; average where tested multiple times; read-out: AC50

AC50 [µM] | Structure (SMILES)
0.5 to 1 | Cc1cccn2nc([C@@H]3c4nc[nH]c4CCN3c3nnc(-c4cnccn4)o3)cc12 [Example 2157, (S)-2-(4-(4-methylpyrazolo[1,5-a]pyridin-2-yl)-1,4,6,7-tetrahydro-5H-imidazo[4,5-c]pyridin-5-yl)-5-(pyrazin-2-yl)-1,3,4-oxadiazole]
0.5 to 1 | FC(F)(F)c1cccn2nc([C@@H]3c4nc[nH]c4CCN3c3nnc(-c4ccncn4)o3)cc12 [Example 2162, (S)-2-(pyrimidin-4-yl)-5-(4-(4-(trifluoromethyl)pyrazolo[1,5-a]pyridin-2-yl)-1,4,6,7-tetrahydro-5H-imidazo[4,5-c]pyridin-5-yl)-1,3,4-oxadiazole]
> 5 | FC(F)(F)c1cccn2nc([C@H]3c4nc[nH]c4CCN3c3nnc(-c4ccncn4)o3)cc12 [Example 2163, (R)-2-(pyrimidin-4-yl)-5-(4-(4-(trifluoromethyl)pyrazolo[1,5-a]pyridin-2-yl)-1,4,6,7-tetrahydro-5H-imidazo[4,5-c]pyridin-5-yl)-1,3,4-oxadiazole]
> 5 | FC(F)c1nnc(N2CCc3[nH]cnc3[C@@H]2c2cc3c(C4CC4)cccn3n2)o1 [Example 2166, (R)-2-(4-(4-cyclopropylpyrazolo[1,5-a]pyridin-2-yl)-1,4,6,7-tetrahydro-5H-imidazo[4,5-c]pyridin-5-yl)-5-(difluoromethyl)-1,3,4-oxadiazole]
1 to 5 | CC(C)c1cccn2nc([C@H]3c4nc[nH]c4CCN3c3nnc(C4CC4)o3)cc12 [Example 2168, (R)-2-cyclopropyl-5-(4-(4-isopropylpyrazolo[1,5-a]pyridin-2-yl)-1,4,6,7-tetrahydro-5H-imidazo[4,5-c]pyridin-5-yl)-1,3,4-oxadiazole]
< 0.5 | CC(C)c1cccn2nc([C@@H]3c4nc[nH]c4CCN3c3nnc(C4CC4)o3)cc12 [Example 2169, (S)-2-cyclopropyl-5-(4-(4-isopropylpyrazolo[1,5-a]pyridin-2-yl)-1,4,6,7-tetrahydro-5H-imidazo[4,5-c]pyridin-5-yl)-1,3,4-oxadiazole]
< 0.5 | FC(F)(F)c1ccc(N2CCc3[nH]cnc3[C@H]2c2cc3c(C4CC4)cccn3n2)nc1 [Example 2170, (S)-4-(4-cyclopropylpyrazolo[1,5-a]pyridin-2-yl)-5-(5-(trifluoromethyl)pyridin-2-yl)-4,5,6,7-tetrahydro-1H-imidazo[4,5-c]pyridine]
> 5 | FC(F)(F)c1ccc(N2CCc3[nH]cnc3[C@@H]2c2cc3c(C4CC4)cccn3n2)nc1 [Example 2171, (R)-4-(4-cyclopropylpyrazolo[1,5-a]pyridin-2-yl)-5-(5-(trifluoromethyl)pyridin-2-yl)-4,5,6,7-tetrahydro-1H-imidazo[4,5-c]pyridine]
> 5 | FC(F)(F)c1cnc(N2CCc3[nH]cnc3[C@@H]2c2cc3c(C4CC4)cccn3n2)nc1 [Example 2175, (R)-4-(4-cyclopropylpyrazolo[1,5-a]pyridin-2-yl)-5-(5-(trifluoromethyl)pyrimidin-2-yl)-4,5,6,7-tetrahydro-1H-imidazo[4,5-c]pyridine]
> 5 | CC(C)c1cccn2nc([C@H]3c4nc[nH]c4CCN3c3nnc(-c4ccncn4)o3)cc12 [Example 2181, (R)-2-(4-(4-isopropylpyrazolo[1,5-a]pyridin-2-yl)-1,4,6,7-tetrahydro-5H-imidazo[4,5-c]pyridin-5-yl)-5-(pyrimidin-4-yl)-1,3,4-oxadiazole]

The remaining lines, values behind:

Structure (SMILES) | AC50 [µM]
COc1cccn2nc([C@H]3c4nc[nH]c4CCN3c3nnc(C(F)F)o3)cc12 [Example 2150, (R)-2-(difluoromethyl)-5-(4-(4-methoxypyrazolo[1,5-a]pyridin-2-yl)-1,4,6,7-tetrahydro-5H-imidazo[4,5-c]pyridin-5-yl)-1,3,4-oxadiazole] | > 5
COc1cccn2nc([C@@H]3c4nc[nH]c4CCN3c3nnc(C(F)F)o3)cc12 [Example 2151, (S)-2-(difluoromethyl)-5-(4-(4-methoxypyrazolo[1,5-a]pyridin-2-yl)-1,4,6,7-tetrahydro-5H-imidazo[4,5-c]pyridin-5-yl)-1,3,4-oxadiazole] | < 0.5
FC(F)Oc1cccn2nc([C@@H]3c4nc[nH]c4CCN3c3nnc(C(F)F)o3)cc12 [Example 2153, (S)-2-(4-(4-(difluoromethoxy)pyrazolo[1,5-a]pyridin-2-yl)-1,4,6,7-tetrahydro-5H-imidazo[4,5-c]pyridin-5-yl)-5-(difluoromethyl)-1,3,4-oxadiazole] | < 0.5
COc1cccn2nc([C@@H]3c4nc[nH]c4CCN3c3nnc(C(F)(F)F)o3)cc12 [Example 2164, (S)-2-(4-(4-methoxypyrazolo[1,5-a]pyridin-2-yl)-1,4,6,7-tetrahydro-5H-imidazo[4,5-c]pyridin-5-yl)-5-(trifluoromethyl)-1,3,4-oxadiazole] | < 0.5
COc1cccn2nc([C@H]3c4nc[nH]c4CCN3c3nnc(C(F)(F)F)o3)cc12 [Example 2165, (R)-2-(4-(4-methoxypyrazolo[1,5-a]pyridin-2-yl)-1,4,6,7-tetrahydro-5H-imidazo[4,5-c]pyridin-5-yl)-5-(trifluoromethyl)-1,3,4-oxadiazole] | > 5
c1cnc(N2CCc3[nH]cnc3[C@H]2c2cc3c(C4CC4)cccn3n2)nc1 [Example 2172, (S)-4-(4-cyclopropylpyrazolo[1,5-a]pyridin-2-yl)-5-(pyrimidin-2-yl)-4,5,6,7-tetrahydro-1H-imidazo[4,5-c]pyridine] | < 0.5
c1cnc(N2CCc3[nH]cnc3[C@@H]2c2cc3c(C4CC4)cccn3n2)nc1 [Example 2173, (R)-4-(4-cyclopropylpyrazolo[1,5-a]pyridin-2-yl)-5-(pyrimidin-2-yl)-4,5,6,7-tetrahydro-1H-imidazo[4,5-c]pyridine] | 1 to 5
FC(F)(F)c1cnc(N2CCc3[nH]cnc3[C@H]2c2cc3c(C4CC4)cccn3n2)nc1 [Example 2174, (S)-4-(4-cyclopropylpyrazolo[1,5-a]pyridin-2-yl)-5-(5-(trifluoromethyl)pyrimidin-2-yl)-4,5,6,7-tetrahydro-1H-imidazo[4,5-c]pyridine] | < 0.5
Fc1cccn2nc([C@H]3c4nc[nH]c4CCN3c3nnc(-c4ccncn4)o3)cc12 [Example 2179, (R)-2-(4-(4-fluoropyrazolo[1,5-a]pyridin-2-yl)-1,4,6,7-tetrahydro-5H-imidazo[4,5-c]pyridin-5-yl)-5-(pyrimidin-4-yl)-1,3,4-oxadiazole] | > 5
CC(C)c1cccn2nc([C@@H]3c4nc[nH]c4CCN3c3nnc(-c4ccncn4)o3)cc12 [Example 2180, (S)-2-(4-(4-isopropylpyrazolo[1,5-a]pyridin-2-yl)-1,4,6,7-tetrahydro-5H-imidazo[4,5-c]pyridin-5-yl)-5-(pyrimidin-4-yl)-1,3,4-oxadiazole] | 0.5 to 1
Clc1cccn2nc([C@H]3c4nc[nH]c4CCN3c3nnc(-c4ccncn4)o3)cc12 [Example 2183, (R)-2-(4-(4-chloropyrazolo[1,5-a]pyridin-2-yl)-1,4,6,7-tetrahydro-5H-imidazo[4,5-c]pyridin-5-yl)-5-(pyrimidin-4-yl)-1,3,4-oxadiazole] | > 5
CC(C)c1cccn2nc([C@@H]3c4nc[nH]c4CCN3c3ncc(C(F)(F)F)cn3)cc12 [Example 2185, (S)-4-(4-isopropylpyrazolo[1,5-a]pyridin-2-yl)-5-(5-(trifluoromethyl)pyrimidin-2-yl)-4,5,6,7-tetrahydro-1H-imidazo[4,5-c]pyridine] | < 0.5
